Where a chain is given by its changes, count along the chain named.
What was measured:
[1] = target: T1, Aldo-keto reductase family 1 member C3 (Homo sapiens, UniProt P42330); test: Inhibition of recombinant AKR1C3 (unknown origin) dehydrogenase activity by measuring NADH formation by spectrophotometry
T1 sequence (P42330 whole entry): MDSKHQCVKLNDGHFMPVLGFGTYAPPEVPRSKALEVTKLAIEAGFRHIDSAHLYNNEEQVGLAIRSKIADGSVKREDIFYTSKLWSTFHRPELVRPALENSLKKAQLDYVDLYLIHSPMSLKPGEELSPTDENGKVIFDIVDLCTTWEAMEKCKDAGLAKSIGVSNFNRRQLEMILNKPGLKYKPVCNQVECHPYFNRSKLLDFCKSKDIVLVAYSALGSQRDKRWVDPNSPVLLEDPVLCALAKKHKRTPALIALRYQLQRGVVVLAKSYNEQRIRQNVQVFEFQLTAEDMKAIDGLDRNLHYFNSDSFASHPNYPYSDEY

[2] = target: T2, Aldo-keto reductase family 1 member C1 (Homo sapiens, UniProt Q04828); test: Inhibition of recombinant AKR1C1 (unknown origin) dehydrogenase activity by measuring NADH formation by spectrophotometry
T2 sequence (Q04828 whole entry): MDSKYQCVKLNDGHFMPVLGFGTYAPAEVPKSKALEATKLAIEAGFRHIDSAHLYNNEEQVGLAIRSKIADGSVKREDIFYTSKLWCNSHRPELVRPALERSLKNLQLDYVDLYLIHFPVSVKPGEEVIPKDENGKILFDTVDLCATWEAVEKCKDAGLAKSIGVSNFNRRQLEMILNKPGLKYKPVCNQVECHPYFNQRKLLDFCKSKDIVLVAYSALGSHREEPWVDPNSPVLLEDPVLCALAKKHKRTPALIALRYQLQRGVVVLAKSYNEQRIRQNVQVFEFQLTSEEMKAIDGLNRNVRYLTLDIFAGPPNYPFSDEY

[3] = target: T3, Aldo-keto reductase family 1 member C2 (Homo sapiens, UniProt P52895); test: Inhibition of recombinant AKR1C2 (unknown origin) dehydrogenase activity by measuring NADH formation by spectrophotometry
T3 sequence (P52895 whole entry): T2 sequence (Q04828 whole entry) with T38V, R47H, L54V, C87S, V151M, R170H, Q172L

Homo sapiens = species on record: Homo sapiens; test: Selectivity ratio of IC50 for AKR1C2 (unknown origin) to IC50 for AKR1C3 (unknown origin)
[4] = Stability of compound in SGF assessed as compound remaining after 1 hrs; format: ADME; settings: simulated gi fluid
[5] = Stability of compound in SIF assessed as compound remaining after 2 hrs; format: ADME; settings: simulated gi fluid
[6] = Metabolic stability in mouse plasma assessed as formation of (E)-3-(3-(11,2,4)triazolo(1,5-alpyridin-6-y1)-5-((4-methylbenzy1)-carbamoyl)phenyl)acrylic acid; format: ADME, cell-free
[7] = Stability on mouse plasma assessed as compound remaining measured at 30 mins; format: ADME, cell-free; settings: 0.5 h
[8] = Metabolic stability in human liver microsomes assessed as compound degradation by LC-MS/MS analysis; format: ADME, Microsome; settings: read-out: Drug degradation
[9] = Metabolic stability in mouse liver microsomes assessed as compound degradation by LC-MS/MS analysis; format: ADME, Microsome; settings: read-out: Drug degradation
[10] = Prodrug conversion in human liver microsomes assessed as formation of (E)-3-(3-(11,2,4)triazolo(1,5-alpyridin-6-y1)-5-((4-methylbenzy1)-carbamoyl)phenyl)acrylic acid over 60 mins; format: ADME, Microsome; settings: 1 h
[11] = Prodrug conversion in mouse liver microsomes assessed as formation of (E)-3-(3-(11,2,4)triazolo(1,5-alpyridin-6-y1)-5-((4-methylbenzy1)-carbamoyl)phenyl)acrylic acid over 60 mins; format: ADME, Microsome; settings: 1 h
[12] = Half life in BALB/c mouse assessed as (E)-3-(3-(11,2,4)triazolo(1,5-alpyridin-6-y1)-5-((4-methylbenzy1)-carbamoyl)phenyl)acrylic acid at 10 mg/kg, po measured upto 24 hrs; format: ADME, organism-based; settings: in vivo
[13] = Tmax in BALB/c mouse at 10 mg/kg, po measured upto 24 hrs; format: ADME, organism-based; settings: in vivo
[14] = Tmax in BALB/c mouse assessed as (E)-3-(3-(11,2,4)triazolo(1,5-alpyridin-6-y1)-5-((4-methylbenzy1)-carbamoyl)phenyl)acrylic acid at 10 mg/kg, po measured upto 24 hrs; format: ADME, organism-based; settings: in vivo
[15] = Cmax in BALB/c mouse at 10 mg/kg, po measured upto 24 hrs; format: ADME, organism-based; design: dose 10 mg/kg, time < 24 hrs, route po; settings: in vivo
[16] = Cmax in BALB/c mouse assessed as (E)-3-(3-(11,2,4)triazolo(1,5-alpyridin-6-y1)-5-((4-methylbenzy1)-carbamoyl)phenyl)acrylic acid at 10 mg/kg, po measured upto 24 hrs; format: ADME, organism-based; design: dose 10 mg/kg, time < 24 hrs, route po; settings: in vivo
[17] = AUC (0 to t) in BALB/c mouse at 10 mg/kg, po measured upto 24 hrs; format: ADME, organism-based; design: time < 24 hrs, dose 10 mg/kg, route po; settings: in vivo
[18] = AUC (0 to t) in BALB/c mouse assessed as (E)-3-(3-(11,2,4)triazolo(1,5-alpyridin-6-y1)-5-((4-methylbenzy1)-carbamoyl)phenyl)acrylic acid at 10 mg/kg, po measured upto 24 hrs; format: ADME, organism-based; design: dose 10 mg/kg, time < 24 hrs, route po; settings: in vivo
[19] = AUC (0 to infinity) in BALB/c mouse assessed as (E)-3-(3-(11,2,4)triazolo(1,5-alpyridin-6-y1)-5-((4-methylbenzy1)-carbamoyl)phenyl)acrylic acid at 10 mg/kg, po measured upto 24 hrs; format: ADME, organism-based; design: time < 24 hrs, dose 10 mg/kg, route po; settings: in vivo
CWR22R [20] = test: Antitumor activity against human 22Rv1 cells xenografted in NSG mouse tumor model assessed as reduction in tumor volume at 25 mg/kg, ip treated for 26 days relative to control; format: functional; settings: 22Rv1, 624 h, time 26 day
CWR22R [21] = test: Antitumor activity against human 22Rv1 cells xenografted in NSG mouse tumor model assessed as reduction in tumor volume at 50 mg/kg, ip treated for 26 days relative to control; format: functional; settings: 22Rv1, 624 h, time 26 day
[22] = Toxicity in NSG mouse xenografted with human 22Rv1 cells assessed as body weight loss at 25 to 50 mg/kg, ip treated for 26 days; format: organism-based, CWR22R; settings: in vivo, 624 h, dose 25-50 mg/kg, time 26 day
[23] = target: T4, Aldo-keto reductase family 1 member C1 (Homo sapiens) (UniProt Q04828); test: Inhibition of recombinant AKR1C1 (unknown origin) dehydrogenase activity at 100 uM by measuring NADH formation by spectrophotometry relative to control
T4 sequence (whole entry): T2 sequence (Q04828 whole entry)

[24] = Half life in BALB/c mouse at 10 mg/kg, po measured upto 24 hrs; format: ADME, organism-based; settings: in vivo
[25] = AUC (0 to infinity) in BALB/c mouse at 10 mg/kg, po measured upto 24 hrs; format: ADME, organism-based; design: time < 24 hrs, dose 10 mg/kg, route po; settings: in vivo
[26] = Extrapolated AUC in BALB/c mouse at 10 mg/kg, po measured upto 24 hrs; format: ADME, organism-based; settings: in vivo
[27] = Apparent volume of distribution during terminal phase in BALB/c mouse at 10 mg/kg, po measured upto 24 hrs; format: ADME, organism-based; settings: in vivo
[28] = Apparent oral clearance in BALB/c mouse at 10 mg/kg, po measured upto 24 hrs; format: ADME, organism-based; settings: in vivo
[29] = target: T1, Aldo-keto reductase family 1 member C3; test: Inhibition of AKR1C3 (unknown origin)

Cc1ccc(CNC(=O)c2cc(/C=C/C#N)cc(-c3ccc(Oc4ccccc4)cc3)c2)cc1
IC50 [1]: 1.4 µM

Cc1ccc(CNC(=O)c2cc(/C=C/C(=O)O)cc(-c3ccccc3)c2)cc1
IC50 [2]: > 100 µM
IC50 [3]: > 100 µM
Ratio IC50 (Homo sapiens): > 2500

COC(=O)/C=C/c1cc(C(=O)NCc2ccc(C)cc2)cc(-c2ccc3ncnn3c2)c1
Stability [4]: Stable
Stability [5]: Stable
Drug metabolism [6]: Metabolite_Detected
Stability [7]: Unstable
metabolised [8]: 25%
metabolised [9]: 25%
Drug metabolism [10]: Metabolite_Detected
Drug metabolism [11]: Metabolite_Detected
t1/2 [12]: 534 min
Tmax [13]: 19 min
Tmax [14]: 12 min
Cmax [15]: 92.796 ng/mL
Cmax [16]: 11599.4 ng/mL
AUCt [17]: 36.416 ng·h/mL
AUCt [18]: 6382.8 ng·h/mL
AUC [19]: 6550.1 ng·h/mL
inhibition in vivo at 25 mg/kg (CWR22R [20]): 30%
inhibition in vivo at 50 mg/kg (CWR22R [21]): 45%
Activity [22]: Non-Toxic

Cc1ccc(CNC(=O)c2cc(C#Cc3ccccc3)cc(/C=C/C(=O)O)c2)cc1
Ratio IC50 (Homo sapiens): 61

Cc1ccc(CNC(=O)c2cc(/C=C/C(=O)O)cc(-c3cccc(F)c3)c2)cc1
IC50 [2]: > 100 µM
Ratio IC50 (Homo sapiens): 960

Cc1ccc(CNC(=O)c2cc(/C=C/C(=O)O)cc(-c3ccc4c(c3)OCCO4)c2)cc1
IC50 [2]: > 100 µM
Ratio IC50 (Homo sapiens): 200

Cc1ccc(CNC(=O)c2cc(/C=C/C(=O)O)cc(-c3ccc4ccccc4c3)c2)cc1
Ratio IC50 (Homo sapiens): 140

Cc1ccc(CNC(=O)c2cc(/C=C/C(=O)O)cc(-c3ccc4c(c3)OCO4)c2)cc1
IC50 [2]: > 100 µM

Cc1ccc(CNC(=O)c2cc(Br)cc(/C=C/C(=O)O)c2)cc1
IC50 [2]: > 100 µM
IC50 [3]: > 100 µM
Ratio IC50 (Homo sapiens): > 333

Cc1ccc(CNC(=O)c2cc(/C=C/C(=O)O)cc(-c3ccc4ncnn4c3)c2)cc1
IC50 [2]: > 100 µM
Ratio IC50 (Homo sapiens): 1220
inhibition [23]: 8%
Stability [4]: Stable
Stability [5]: Stable
t1/2 [24]: 864 min
Tmax [13]: 6 min
Cmax [15]: 174.8 ng/mL
AUCt [17]: 367.6 ng·h/mL
AUC [25]: 515.1 ng·h/mL
%AUCextra [26]: 28.8%
Vz/F [27]: 405 L/kg
CL/F [28]: 323 mL/min/kg

Cc1ccc(CNC(=O)c2cc(/C=C/C(=O)O)cc(-c3ccc(-c4ccccc4)cc3)c2)cc1
Ratio IC50 (Homo sapiens): 580

Cc1ccc(CNC(=O)c2cc(/C=C/C(=O)O)cc(-c3ccc4nccnc4c3)c2)cc1
Ratio IC50 (Homo sapiens): 133

CN(CCC(=O)O)C(=O)c1ccc2c(c1)CC[C@@H]1[C@@H]2CC[C@]2(C)C(c3cncc(F)c3)=CC[C@@H]12
IC50 [29]: 0.0018 µM

Cc1ccc(CNC(=O)c2cc(/C=C/C(=O)O)cc(-c3ccc(F)cc3)c2)cc1
IC50 [2]: > 100 µM
Ratio IC50 (Homo sapiens): 600

CC[C@@H](NC(=O)c1cc(/C=C/C(=O)O)cc(-c2ccc(C(C)C)cc2)c1)c1ccccc1
Ratio IC50 (Homo sapiens): 51

Cc1ccc(CNC(=O)c2cc(/C=C/C(=O)O)cc(CC(C)c3ccccc3)c2)cc1 (centres undefined)
Ratio IC50 (Homo sapiens): 177

Cc1ccc(CNC(=O)c2cc(/C=C/C(=O)O)cc(-c3ccc(CN4CCOCC4)c(F)c3)c2)cc1
Ratio IC50 (Homo sapiens): 16

CC(C)=CCc1cc(/C=C/C#N)cc(C(=O)NCc2ccc(C)cc2)c1
IC50 [1]: 2.7 µM

Cc1ccc(CNC(=O)c2cc(/C=C/C(=O)O)cc(-c3ccc4cccnc4c3)c2)cc1
Ratio IC50 (Homo sapiens): 109

Cc1ccc(CNC(=O)c2cc(/C=C/C(=O)O)cc(-c3ccc(C)cc3)c2)cc1
Ratio IC50 (Homo sapiens): 160

Cc1ccc(CNC(=O)c2cc(/C=C/C(=O)O)cc(-c3ccc(Cl)cc3)c2)cc1
IC50 [2]: > 100 µM
Ratio IC50 (Homo sapiens): 333

C/C=C\Cc1cc(/C=C/C(=O)O)cc(C(=O)NCc2ccc(C)cc2)c1
Ratio IC50 (Homo sapiens): 200

Cc1ccc(CNC(=O)c2cc(/C=C/C(=O)O)cc(-c3ccccc3F)c2)cc1
IC50 [2]: > 100 µM
IC50 [3]: > 100 µM
Ratio IC50 (Homo sapiens): > 1430

Cc1ccc(CNC(=O)c2cc(/C=C/C(=O)O)cc(-c3ccc(Oc4ccccc4)cc3)c2)cc1
Ratio IC50 (Homo sapiens): 51

CC(C)=CCOc1cc(/C=C/C(=O)O)cc(C(=O)NCc2ccc(C)cc2)c1
Ratio IC50 (Homo sapiens): 187

Cc1ccc(CNC(=O)c2cc(/C=C/C(=O)O)cc(-c3ccc(-n4c5ccccc5c5ccccc54)cc3)c2)cc1
Ratio IC50 (Homo sapiens): 221

C/C=C/Cc1cc(/C=C/C(=O)O)cc(C(=O)NCc2ccc(C)cc2)c1
IC50 [2]: > 100 µM
Ratio IC50 (Homo sapiens): 354

Cc1ccc(CNC(=O)c2cc(C#CC3CC3)cc(/C=C/C(=O)O)c2)cc1
Ratio IC50 (Homo sapiens): 74

— ChEMBL document CHEMBL5346958 (J Med Chem, 2023)
